Experiment [1] relates to mice with DC crush injury. The experiment in a line: BSCB integrity by albumin immunoreactivity. The experiment is classed as in vivo, mouse. As to conditions: oral. The text has this:
After killing animals by exposure to rising concentrations of CO2, mice were intracardially perfused with 4% formaldehyde (TAAB Laboratories, Berkshire, UK) in 0.1M phosphate buffered saline (PBS). The lesion site+5 mm either side were dissected out, post-fixed in 4% formaldehyde and subjected to a graded series of sucrose solutions for cryoprotection. Spinal cords were blocked in OCT mounting compound (TAAB laboratories), sectioned longitudinally at 15 μm-thick using a cryostat (Brights Instruments, Huntingdon, UK) before being collected on charged glass slides (ThermoFisher Scientific, Loughborough, UK) and kept at −20° C. until required. Slides were numbered consecutively and sections from the middle of the lesion site were chosen for all immunohistochemical analyses, as described by previously (Surey S, Berry M, Logan A, Bicknell R, Ahmed Z. Differential cavitation, angiogenesis and wound-healing responses in injured mouse and rat spinal cords. Neuroscience 2014; 275: 62-80).
The integrity of the BSCB was assessed using albumin immunoreactivity in the spinal cord at 3 days after injury, as a surrogate marker of BSCB disruption. Sections were thawed at room temperature and washed in PBS before blocking endogenous […] in H2O2. […]

The test system of experiment [2] is rats with DC crush injury. The experiment in a line: Spinal cord water content after DC injury in rats. Format: in vivo. Particulars: rat DC injury, oral, 3 days. On the procedure:
DC crush injury was administered bilaterally at the T8 vertebral level as described previously (S. Surey, M. Berry, A. Logan, R. Bicknell, Z. Ahmed, Differential cavitation, angiogenesis and wound-healing responses in injured mouse and rat spinal cords. Neuroscience 275, 62-80 (2014); M. L. Read, S. Mir, R. Spice, R. J. Seabright, E. L. Suggate, Z. Ahmed, M. Berry, A. Logan, Profiling RNA interference (RNAi)-mediated toxicity in neural cultures for effective short interfering RNA design. J Gene Med 11, 523-534 (2009)). […]
The efficacy of oral AZD3342 in the DC injury model in adult Sprague-Dawley rat was also assessed. […]
The lesion site+3 mm either side for mice and the lesion site+5 mm either side for the rat DC model were dissected out and the water content of the spinal cord (as a measure of oedema) was determined at 3 days after DC and CC SCI, as described previously (S. Li, C. H. Tator, Effects of MK801 on evoked potentials, spinal cord blood flow and cord edema in acute spinal cord injury in rats. Spinal Cord 37, 820-832 (1999)). […] The percent water content was calculated as: water content (%)=[(wet weight-dry weight)/wet weight]×100%.

For another experiment, the system named is IL-1β, TNF-α and IL-6. The experiment in a line: Proinflammatory pain cytokines after DC injury in rats. Format: in vivo. As to conditions: rat DC injury, oral. On the procedure: The efficacy of oral AZD3342 in the DC injury model in adult Sprague-Dawley rat was also assessed. Animals were divided into 6 groups: (1), Sham (control); (2), DC crush injury+Vehicle; (3), DC crush injury+15 mg/kg AZD3342; (4), DC crush injury+75 mg/kg […]; (5), DC crush injury+375 mg/kg AZD3342; and (6), DC crush injury+Melatonin. Animals were dosed twice daily with oral AZD3342 or vehicle with the experimenters masked to the treatment conditions. These experiments were performed with n=6 rats/group and repeated on 2-3 independent occasions (total n=12-18 rats/group/test).
The lesion site+5 mm either side (DC and CC SCI, n=6 mice/rats/group, 2 independent repeats (total n=12 mice/rats/group)) was dissected and rapidly frozen in liquid N2 and stored at −80° C. until required. […] The levels of mRNA of MMP-9, MMP-12, IL-1β, TNF-α and IL-6 were determined using pre-validated mouse primer sequences from complimentary DNA prepared from extracted mRNA and qRT-PCR was performed using a LightCycler PCR machine (Roche, Burgess Hill, UK) (M. L. Read, S. Mir, R. Spice, R. J. Seabright, E. L. Suggate, Z. Ahmed, M. Berry, A. Logan, Profiling RNA interference (RNAi)-mediated toxicity in neural cultures for effective short interfering RNA design. J Gene Med 11, 523-534 (2009)). […]

Structures are written as SMILES.

Regarding `C[C@]1(CS(=O)(=O)N2CC=C(C#Cc3cnc(C4CC4)nc3)CC2)NC(=O)NC1=O` [AZD1236], the “suppression of area of BSCB breakdown (albumin immunoreactivity)” value is more than 73% in experiment [1] (24 h delayed treatment) and more than 75% in experiment [1] (immediately after injury, 3 days, vs DC+vehicle).

Turning to `C[C@]1(CS(=O)(=O)N2CCC(Oc3ccc(Cl)cn3)CC2)NC(=O)NC1=O` [AZD3342, (5S)-5-[4-(5-chloro-pyridin-2-yloxy)-piperidine-1-sulfonylmethyl]-5-methylimidazolidine-2,4-dione], the “SCI-induced edema (spinal cord water content)” value in experiment [2] is “suppressed”. Further, the “expression of proinflammatory pain cytokines” value with IL-1β, TNF-α and IL-6 was “significantly suppressed”.
